# Data as given in ChEMBL document CHEMBL1201862, “PubChem BioAssay data set” (2004).
# Calls of active or inactive are those of the source. Cut-off read from the data, not from the text of the source, for most assays here: actives have a measured EC50 and inactives only a lower limit.
# Legend:
# H9c2 = test: cells; type: functional, cell-based; conditions: Rattus norvegicus, H9c2, Myocardium;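 note: confirmatory concentration-response retest of ultra-high-throughput screening hits for modulation of myocardial damage; cell death induced by hydrogen peroxide oxidative stress; compound pretreatment for 60 min then peroxide exposure for 2 h; potency is for protecting the cells against peroxide damage rather than for killing them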
# [1] = biological target: Luciferin 4-monooxygenase (Photinus pyralis, UniProt P08659); test: firefly luciferase enzyme inhibitors, dose response, biochemical, luminescence (AID 1891)
# [2] = Luminescence Cell-Based Dose Confirmation HTS to Identify Inhibitors of Platelet Dense Granule Release. [Related pubchem assays: 1663 (Primary HTS), 1678 (Summary of Project)]; type: functional
# [3] = Luminescence Cell-Based Dose Retest to Confirm Inhibitors of Cancer Stem Cells. [Related pubchem assays (depositor defined):AID2717, AID2721]; type: functional; conditions: Homo sapiens
# [4] = inhibitors of intracellular T. cruzi replication, confirmation, NIH3T3 host cells, beta-gal luminescence (AID 2044); type: functional, cell-based;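 note: intracellular parasites grown in NIH/3T3 mouse fibroblasts as host cells; luminescent beta-galactosidase reporter signal from transgenic T. cruzi replicating inside host cells; inhibitors lower the luminescence signal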
# Large T antigen = Large T antigen (Simian virus 40, UniProt P03070); type: functional, Betapolyomavirus macacae;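 note: Confirmatory-stage PubChem screen for compounds that inhibit SV40 T antigen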
# [5] = cytotoxicity toward NIH3T3 fibroblasts, dose response, counter-screen, cell-based, ATP luminescence, mouse fibroblasts (AID 2010); type: functional;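 note: cells exposed to compound for about 90 hours before reading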
# Paired box protein Pax-8 = Paired box protein Pax-8 (Homo sapiens, UniProt Q06710); test: inhibitors of PAX8-driven TPO luciferase reporter, dose response, RMG-I cells, cherry-pick (AID 687027); type: functional, cell-based;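 note: luciferase reporter driven by Pax8 target thyroperoxidase promoter measured by SteadyGlo luminescence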
# [6] = C. albicans growth with fluconazole, confirmation, fluorescence, retest (AID 2467); type: functional, cell-based
# [7] = NIH-3T3 fibroblast cytotoxicity, dose response, cytotoxicity control, cell-based, fluorescence, Alamar Blue, secondary assay (AID 2327); type: functional;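 note: NIH-3T3 mouse fibroblasts cultured with fluconazole at 8 µg/mL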
# [8] = cytotoxicity toward DRD oncogenic fibroblasts, dose response, cell-based, non-viral oncogenic, luminescence (AID 1934); type: functional; conditions: Homo sapiens
# BJ [9] = test: cells; type: functional, cell-based; conditions: Homo sapiens
# BJ [10] = test: cytotoxicity toward BJ-TERT fibroblasts, dose response, cell-based, RAS-independent, luminescence (AID 1933); type: functional; conditions: Homo sapiens
# BJ [11] = test: cytotoxicity toward BJ-TERT-LT-ST fibroblasts, dose response, cell-based, RAS-independent, luminescence (AID 1935); type: functional; conditions: Homo sapiens;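 note: BJ fibroblasts immortalized with TERT plus LT and ST oncogenes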
# Protein skinhead-1 = biological target: T1, Protein skinhead-1 (Caenorhabditis elegans, UniProt P34707); type: functional
# T1 sequence (P34707 whole entry): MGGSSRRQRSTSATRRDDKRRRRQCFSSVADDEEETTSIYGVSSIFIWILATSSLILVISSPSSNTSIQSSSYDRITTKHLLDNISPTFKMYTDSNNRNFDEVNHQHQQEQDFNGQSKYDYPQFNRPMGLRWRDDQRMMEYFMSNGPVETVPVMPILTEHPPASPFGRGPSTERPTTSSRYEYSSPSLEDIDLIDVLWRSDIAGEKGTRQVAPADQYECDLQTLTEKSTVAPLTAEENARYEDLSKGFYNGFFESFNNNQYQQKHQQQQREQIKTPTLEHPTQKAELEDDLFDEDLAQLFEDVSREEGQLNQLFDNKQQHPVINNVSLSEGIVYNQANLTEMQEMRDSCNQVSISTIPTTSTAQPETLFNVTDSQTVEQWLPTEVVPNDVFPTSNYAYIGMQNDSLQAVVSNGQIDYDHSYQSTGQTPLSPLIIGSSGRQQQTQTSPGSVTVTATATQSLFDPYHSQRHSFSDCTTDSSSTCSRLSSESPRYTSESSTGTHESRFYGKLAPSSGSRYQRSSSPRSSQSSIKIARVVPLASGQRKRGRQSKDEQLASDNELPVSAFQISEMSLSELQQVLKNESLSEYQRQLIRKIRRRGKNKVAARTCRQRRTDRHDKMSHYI
# [12] = biological target: Heat shock protein HSP 90-alpha (Homo sapiens, UniProt P07900); type: functional, organism-based
# INS1 = test: beta cell apoptosis inhibitors, cytokine rescue, dose response, luminescence, retest (AID 449756); type: functional, cell-based; conditions: Rattus norvegicus;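 note: cell death triggered by IL-1 beta plus TNF-alpha plus IFN-gamma mixture; protective hits raise ATP signal compared with cytokine alone wells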
# [13] = inhibitors of firefly luciferase expression or activity, dose response, H4 neuroglioma cells, luminescence (AID 1990); type: functional, cell-based
# [14] = system: Streptococcus sp. 'group A'; test: growth inhibition of control SK(-) GAS strain, dose response, counter-screen for streptokinase expression inhibitor project, luminescence, kanamycin, BacTiterGlo, confirmation (AID 1900); type: functional, organism-based
# [15] = Luminescence Cell-Based Dose Response HTS to Identify Inhibitors of 5'UTR Stem-Loop Driven Prion Protein mRNA Translation in H4 Neuroglioblastoma Cells. [Related pubchem assays: 1827 (Project Summary), 1813 (Primary HTS)]; type: functional
# [16] = inhibitors of SNCA 5'UTR-driven reporter translation, confirmation, H4 neuroglioma cells, luminescence (AID 1988); type: functional, cell-based
# Streptococcus = test: Group A Streptococcus viability loss, dose response, counter-screen for streptokinase expression inhibitor project, luminescence, BacTiterGlo (AID 1915); type: functional, organism-based;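 note: potency for reduction of bacterial viability or growth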
# Streptokinase A = biological target: T2, Streptokinase A (Streptococcus pyogenes serotype M1, UniProt P10520); test: S. pyogenes streptokinase expression inhibitors, potency, dose response, plasminogen activation absorbance, OD405 (AID 1914); type: functional, Streptococcus pyogenes M1 GAS;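 note: secreted streptokinase activity via plasminogen activation per viability signal from cell pellet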
# T2 sequence (P10520 whole entry): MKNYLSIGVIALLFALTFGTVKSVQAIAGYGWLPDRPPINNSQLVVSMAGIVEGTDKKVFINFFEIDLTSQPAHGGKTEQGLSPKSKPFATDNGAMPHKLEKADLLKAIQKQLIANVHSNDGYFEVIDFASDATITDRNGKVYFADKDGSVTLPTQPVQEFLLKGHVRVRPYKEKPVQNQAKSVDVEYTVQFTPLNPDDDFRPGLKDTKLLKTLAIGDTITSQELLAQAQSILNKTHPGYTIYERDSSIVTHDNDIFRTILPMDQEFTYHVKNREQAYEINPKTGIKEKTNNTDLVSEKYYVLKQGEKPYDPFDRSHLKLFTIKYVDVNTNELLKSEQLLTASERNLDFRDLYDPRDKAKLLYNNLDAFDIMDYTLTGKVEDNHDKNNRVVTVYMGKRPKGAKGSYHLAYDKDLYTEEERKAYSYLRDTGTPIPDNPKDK
# [17] = P. falciparum Dd2 growth inhibitors, dose response, SYBR Green, cherry-picked samples (AID 1159567); type: functional, cell-based
# Sequence of Luciferin 4-monooxygenase (P08659 whole entry): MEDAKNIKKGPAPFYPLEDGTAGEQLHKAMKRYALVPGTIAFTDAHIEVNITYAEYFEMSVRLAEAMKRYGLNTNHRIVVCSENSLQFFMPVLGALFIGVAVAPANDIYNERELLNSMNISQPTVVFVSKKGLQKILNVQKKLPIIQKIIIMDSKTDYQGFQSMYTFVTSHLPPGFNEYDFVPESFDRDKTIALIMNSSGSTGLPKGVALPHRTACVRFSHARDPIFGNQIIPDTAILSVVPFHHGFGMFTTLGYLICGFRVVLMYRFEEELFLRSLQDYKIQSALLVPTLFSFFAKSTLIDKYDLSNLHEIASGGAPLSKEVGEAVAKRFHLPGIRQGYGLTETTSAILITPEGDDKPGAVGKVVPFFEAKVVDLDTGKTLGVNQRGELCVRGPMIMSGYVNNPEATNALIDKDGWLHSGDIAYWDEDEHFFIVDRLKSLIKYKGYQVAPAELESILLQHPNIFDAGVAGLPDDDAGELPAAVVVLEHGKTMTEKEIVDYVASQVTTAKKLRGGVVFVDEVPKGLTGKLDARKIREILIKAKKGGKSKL
# Sequence of Paired box protein Pax-8 (Q06710 whole entry): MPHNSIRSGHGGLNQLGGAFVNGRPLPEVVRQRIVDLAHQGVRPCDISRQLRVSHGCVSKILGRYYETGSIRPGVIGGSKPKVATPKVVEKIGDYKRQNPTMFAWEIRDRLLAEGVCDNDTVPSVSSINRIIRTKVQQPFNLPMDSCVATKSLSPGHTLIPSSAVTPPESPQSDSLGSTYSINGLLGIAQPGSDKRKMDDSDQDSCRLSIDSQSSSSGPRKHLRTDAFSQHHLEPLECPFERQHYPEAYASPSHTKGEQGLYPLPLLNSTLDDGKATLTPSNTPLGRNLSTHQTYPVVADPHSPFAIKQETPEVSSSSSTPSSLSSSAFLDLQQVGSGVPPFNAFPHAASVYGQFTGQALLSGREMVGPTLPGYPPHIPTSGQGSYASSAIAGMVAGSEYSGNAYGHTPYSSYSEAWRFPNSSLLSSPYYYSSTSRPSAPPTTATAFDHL
# Sequence of Large T antigen (P03070 whole entry): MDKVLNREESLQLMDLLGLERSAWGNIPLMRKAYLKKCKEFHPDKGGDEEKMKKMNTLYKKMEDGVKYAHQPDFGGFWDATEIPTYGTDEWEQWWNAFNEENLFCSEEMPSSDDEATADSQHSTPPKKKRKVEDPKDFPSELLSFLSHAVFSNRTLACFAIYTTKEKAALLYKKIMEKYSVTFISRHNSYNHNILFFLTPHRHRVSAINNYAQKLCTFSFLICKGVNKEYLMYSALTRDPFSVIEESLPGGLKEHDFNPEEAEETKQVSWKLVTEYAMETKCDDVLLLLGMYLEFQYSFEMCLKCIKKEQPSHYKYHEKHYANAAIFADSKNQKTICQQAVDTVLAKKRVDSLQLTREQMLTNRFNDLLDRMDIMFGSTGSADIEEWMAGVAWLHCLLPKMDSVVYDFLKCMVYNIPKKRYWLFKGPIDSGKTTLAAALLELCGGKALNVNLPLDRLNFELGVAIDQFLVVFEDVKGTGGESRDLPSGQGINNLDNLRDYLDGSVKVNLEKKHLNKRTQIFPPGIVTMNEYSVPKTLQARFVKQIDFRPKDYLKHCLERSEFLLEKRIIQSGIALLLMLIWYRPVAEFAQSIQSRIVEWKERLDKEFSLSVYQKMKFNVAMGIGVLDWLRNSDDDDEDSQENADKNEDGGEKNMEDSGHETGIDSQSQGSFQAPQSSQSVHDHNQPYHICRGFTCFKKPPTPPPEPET
smiles,measurement,setting,value
CCc1nnc(NC(=O)CCC(=O)N2CCN(C3c4ccccc4-c4ccccc43)CC2)s1,IC50,H9c2,17.4 µM (active)
CCOc1ccccc1CNS(=O)(=O)c1c[nH]cn1,EC50,[1],> 112 µM (not active)
same,EC50,[2],> 112 µM (not active)
COc1ccccc1NC(=O)c1c(Nc2ccccc2F)sc(C(=O)Nc2cccc(Cl)c2)c1N,AC50,[3],1.16 µM (active)
CCn1cc(C(=O)N[C@@H](CCSC)C(=O)NCCCn2ccnc2)c(=O)c2cc3c(cc21)OCO3,EC50,[1],> 112 µM (not active)
same,EC50,[2],> 112 µM (not active)
CC1=CS/C(=C(/C#N)C(=O)N2CCOCC2)N1c1ccccc1,EC50,[1],> 112 µM (not active)
same,EC50,[2],> 112 µM (not active)
O=C(CCSc1ccc(Cl)cc1)N1CCN(c2ccc(O)cc2)CC1,EC50,[4],0.169 µM (active)
same,IC50,Large T antigen,6.74 µM (active)
same,EC50,[5],6.9 µM (active)
same,AC50,[3],2.51 µM (active)
C=C(C)C(=O)OC1(C(F)(F)F)Oc2cc(C)ccc2NC1=O (centres undefined),AC50,Paired box protein Pax-8,9.05 µM (active)
COc1ccc(N(CC(=O)Nc2ccc3c(c2)OCO3)S(=O)(=O)c2ccccc2)c(OC)c1,IC50,H9c2,> 79 µM (inactive)
CCN=C(S)NNC(=O)c1cc(-c2ccc(OC)cc2)nc2ccccc12,EC50,[6],> 38 µM (not active)
same,EC50,[7],> 160 µM (inactive)
same,EC50,[8],11 µM (active)
same,EC50,BJ [9],14 µM (active)
same,EC50,[1],0.107 µM (active)
same,EC50,[2],1.38 µM (active)
same,EC50,BJ [10],9.62 µM (active)
same,EC50,BJ [11],> 150 µM (not active)
O=C(CCS(=O)(=O)c1ccccc1)Nc1ncc([N+](=O)[O-])s1,EC50,[6],0.746 µM (active)
same,EC50,[7],> 150 µM (inactive)
Cc1ccc(O)c(-c2cc(-c3cccc(F)c3)[nH]n2)c1,IC50,Protein skinhead-1,> 100 µM (inactive)
same,AC50,[12],25.4 µM (active)
Cc1ccc2c(c1)C1CN(C)CCC1N2Sc1ccccc1[N+](=O)[O-] (centres undefined),EC50,[6],> 38 µM (not active)
same,EC50,[7],> 150 µM (inactive)
CC1(C)C(=O)C(c2nc3ccccc3[nH]2)=C(N)N1c1ccccc1,EC50,[6],5.1 µM (active)
same,EC50,[7],58.9 µM (active)
O=C(Cn1c(S)nc2ccccc21)c1ccccc1,EC50,[1],> 112 µM (not active)
same,EC50,[2],> 112 µM (not active)
COC(=O)c1cnn2c(O)c(Cc3ccc(F)cc3Cl)c(C)nc12,EC50,[6],1.33 µM (active)
same,EC50,[7],> 150 µM (inactive)
COc1ccc(CCNC(=O)c2cc(S(=O)(=O)N3CCOCC3)cn2C)cc1OC,EC50,[1],> 112 µM (not active)
same,EC50,[2],> 112 µM (not active)
O=C1Cc2ccccc2Sc2ccc(Cl)cc21,EC50,[1],> 112 µM (not active)
same,EC50,[2],> 112 µM (not active)
O=C(NCc1cccnc1)C(=O)NCC1OCCN1S(=O)(=O)c1ccccc1 (centres undefined),EC50,[1],> 112 µM (not active)
same,EC50,[2],> 112 µM (not active)
O=c1cc(-c2ccccc2)cc(-c2ccccc2)n1O,AC50,[12],1.13 µM (active)
COc1ccc(-c2nnc3sc(-c4ccco4)nn23)cc1OC,IC50,H9c2,> 79 µM (inactive)
O=C(N1CCOCC1)N1CCN(S(=O)(=O)N2CCOCC2)CC1,EC50,[1],> 112 µM (not active)
same,EC50,[2],> 112 µM (not active)
CC(OC(=O)Cc1nnc(O)c2ccccc12)C(=O)Nc1cccc([N+](=O)[O-])c1 (centres undefined),IC50,H9c2,> 79 µM (inactive)
Cc1ccc(C(=O)NC(=S)NNC(=O)c2ccccc2[N+](=O)[O-])cc1,EC50,[6],> 38 µM (not active)
same,EC50,[7],18.8 µM (inconclusive)
Cc1ccnc(NC(=O)c2ccc([N+](=O)[O-])s2)c1,EC50,[4],0.743 µM (active)
same,EC50,[5],> 60 µM (not active)
same,AC50,INS1,6.55 µM (active)
Cc1cc([N+](=O)[O-])ccc1NC(=O)CSc1nncn1-c1cccnc1,EC50,[1],> 112 µM (not active)
same,EC50,[2],> 112 µM (not active)
COc1ccc(-c2cc(C(=O)N(C)Cc3nc(O)c4ccccc4n3)c3ccccc3n2)cc1OC,IC50,H9c2,> 79 µM (inactive)
COC(=O)c1ccc2c(O)nc(COC(=O)c3[nH]c(C)c(C(C)=O)c3C)nc2c1,IC50,H9c2,7.05 µM (active)
COC(=O)c1ccc(Cn2nnc3c(O)nc(C4CCCN(S(=O)(=O)c5ccccc5)C4)nc32)cc1 (centres undefined),IC50,H9c2,18.3 µM (active)
Cc1ccc(/N=C/c2cc(Cl)cc(Cl)c2O)nc1,IC50,H9c2,13.5 µM (active)
CCOC(=O)C1=c2s/c(=C\c3ccncc3)c(=O)n2C(N)=C(C(=O)OC)C1c1ccncc1 (centres undefined),IC50,H9c2,> 79 µM (inactive)
Cc1ccc(S(=O)(=O)Nc2ccc3c(c2)C(=O)N([C@@H](C)CO)C[C@@H](C)[C@H](CN(C)Cc2ccc(Cl)c(Cl)c2)OCCCC[C@@H](C)O3)cc1,AC50,Paired box protein Pax-8,7.92 µM (active)
O=C(N/N=C/c1cc([N+](=O)[O-])ccc1O)c1cccc(NC(=O)c2cccc(Cl)c2)c1,EC50,[13],12.7 µM (active)
same,EC50,[14],5.18 µM (active)
same,EC50,[15],13.3 µM (active)
same,EC50,[16],10.6 µM (active)
same,EC50,Streptococcus,18.7 µM (active)
same,EC50,Streptokinase A,> 150 µM (not active)
same,AC50,INS1,2.18 µM (active)
C/C(N)=C(/C#N)C(=O)COC(=O)c1cc(-c2ccc(C)cc2)nc2ccccc12,AC50,[3],17.4 µM (active)
same,AC50,INS1,> 260 µM (inactive)
COc1ccc(C#Cc2ccc3c(c2)[C@H]2[C@H](CCN2C(=O)c2ccccn2)[C@H](CO)N3)cc1,AC50,[17],5.61 µM (active)
C[C@@H](C(=O)N(C)C[C@@H]1OCc2ccccc2-c2c(n(C)c3ccccc23)C(=O)N([C@@H](C)CO)C[C@@H]1C)c1ccccc1,AC50,[17],6.3 µM (active)
